Experimental data as given in the supplement of paper PMC10307832.

Columns and labels:
Assay in all cases: relative viability (nuclei count vs DMSO), 5 days (fraction); higher = more cells survive
[1] = compound: C1CC(C1)(C(=O)O)C(=O)O.[NH2-].[NH2-].[Pt+2] [Carboplatin] + Cc1nc(NC(=O)N2CCC[C@H]2C(N)=O)sc1-c1ccnc(C(C)(C)C(F)(F)F)c1 [Alpelisib] (partner 2 µM)
Summary of the method: (§1)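 Cells from lung cancer lines were seeded into 1536-well plates and, one day later, dosed by pin tool. Treatments were either a single drug or a fixed dose of an anchor drug with five library-drug doses (not always all listed) in √10 steps. After 5 days, nuclei were stained in a one-step fixation (final 0.05% Triton X-100, 1% formaldehyde, 1 ug/ml Hoechst) and counted on 4× images, and relative viability is the treated-to-vehicle nuclei ratio, as the median of duplicate plates.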

[2] = compound: C1CC(C1)(C(=O)O)C(=O)O.[NH2-].[NH2-].[Pt+2] [Carboplatin] + Cc1nc(Nc2ncc(C(=O)Nc3c(C)cccc3Cl)s2)cc(N2CCN(CCO)CC2)n1 [Dasatinib] (partner 0.075 µM)
Summary of the method: as §1

[3] = compound: CC[C@H](C)N1C=C(C2=C(C=C(C=C21)C3=CN=C(C=C3)N4CCNCC4)C(=O)NCC5=C(C=C(NC5=O)C)C)C [GSK126] + COc1cccc2cc(-c3nc([C@H]4CC[C@H](C(=O)O)CC4)n4ncnc(N)c34)[nH]c12 [OSI-027] (partner 0.5 µM)
Summary of the method: as §1

[4] = compound: CC[C@H](C)N1C=C(C2=C(C=C(C=C21)C3=CN=C(C=C3)N4CCNCC4)C(=O)NCC5=C(C=C(NC5=O)C)C)C [GSK126] + Nc1nc2[nH]cc(CCc3ccc(C(=O)N[C@@H](CCC(=O)O)C(=O)O)cc3)c2c(=O)[nH]1 [Pemetrexed] (partner 0.2 µM)
Summary of the method: as §1

Cell Line	relative viability ([1]; first compound 0.08 µM)	relative viability ([1]; first compound 0.253 µM)	relative viability ([1]; first compound 0.8 µM)	relative viability ([1]; first compound 2.53 µM)	relative viability ([1]; first compound 8 µM)	relative viability ([2]; first compound 0.08 µM)	relative viability ([2]; first compound 0.253 µM)	relative viability ([2]; first compound 0.8 µM)	relative viability ([2]; first compound 2.53 µM)	relative viability ([2]; first compound 8 µM)	relative viability ([3]; first compound 0.08 µM)	relative viability ([3]; first compound 0.253 µM)	relative viability ([3]; first compound 0.8 µM)	relative viability ([3]; first compound 2.53 µM)	relative viability ([3]; first compound 8 µM)	relative viability ([4]; first compound 0.08 µM)	relative viability ([4]; first compound 0.253 µM)	relative viability ([4]; first compound 0.8 µM)	relative viability ([4]; first compound 2.53 µM)	relative viability ([4]; first compound 8 µM)
LU99A	0.623	0.584	0.493	0.522	0.365	0.562	0.559	0.511	0.39	0.384	0.341	0.324	0.275	0.311	0.296	0.181	0.165	0.185	0.179	0.155
NCI-H1299	1.06	1.11	0.997	1.02	0.909	–	–	–	–	–	–	–	–	–	–	–	–	–	–	–
NCI-H1355	0.885	0.866	0.843	0.687	0.721	0.729	0.759	0.776	0.667	0.656	0.412	0.362	0.418	0.453	0.44	1.15	1.12	0.996	1.03	1.06
HCC-15	0.93	0.93	0.84	0.761	0.707	0.69	0.645	0.621	0.591	0.407	0.752	0.687	0.696	0.713	0.695	0.221	0.229	0.224	0.215	0.238
LXF-289	1.05	1.12	1.01	0.975	0.995	0.327	0.24	0.223	0.264	0.232	0.838	0.86	0.784	0.877	0.768	0.894	0.945	0.933	0.908	0.884
201T	1.07	1.07	1.04	1.01	0.926	0.575	0.571	0.569	0.487	0.576	0.822	0.772	0.736	0.865	0.759	0.346	0.342	0.329	0.367	0.328
HOP-62	0.746	0.991	1.09	0.922	0.77	0.711	0.711	0.645	0.728	0.575	0.888	0.845	0.869	0.867	0.798	0.335	0.355	0.284	0.289	0.419
NCI-H1703	0.373	0.335	0.417	0.407	0.421	–	–	–	–	–	–	–	–	–	–	–	–	–	–	–
NCI-H1975	0.669	0.655	0.728	0.598	0.666	0.433	0.374	0.358	0.366	0.375	0.867	0.81	0.747	0.749	0.722	0.276	0.306	0.304	0.305	0.277
NCI-H2023	0.65	0.546	0.601	0.397	0.193	0.584	0.635	0.471	0.29	0.149	0.595	0.388	0.447	0.495	0.527	0.251	0.231	0.224	0.268	0.13
EBC-1	0.85	0.827	0.809	0.799	0.77	–	–	–	–	–	–	–	–	–	–	–	–	–	–	–
COR-L23	0.724	0.721	0.74	0.663	0.272	0.51	0.536	0.436	0.373	0.216	1	0.725	0.645	0.824	0.694	0.229	0.194	0.188	0.185	0.183
NCI-H1793	0.874	0.645	0.561	0.751	0.588	0.432	0.384	0.394	0.355	0.381	0.288	0.241	0.318	0.248	0.32	0.981	0.825	0.876	0.916	0.932
A549	0.811	0.901	0.854	0.674	0.234	–	–	–	–	–	–	–	–	–	–	–	–	–	–	–
CAL-12T	1.18	1.05	1.2	1.23	1.12	0.375	0.502	0.419	0.521	0.372	0.78	0.576	0.767	0.67	0.819	1.31	1.37	1.09	1.13	1.43
NCI-H1993	0.663	0.745	0.643	0.62	0.678	0.517	0.591	0.522	0.559	0.601	0.492	0.53	0.557	0.542	0.541	0.583	0.555	0.628	0.586	0.687
ChaGo-K-1	–	–	–	–	–	0.559	0.61	0.612	0.477	0.309	0.609	0.611	0.562	0.545	0.544	0.256	0.269	0.265	0.256	0.254
SW 900	–	–	–	–	–	0.837	0.616	0.442	0.409	0.467	0.605	0.505	0.502	0.473	0.466	0.498	0.45	0.463	0.46	0.493
NCI-H2342	–	–	–	–	–	0.328	0.344	0.311	0.28	0.294	0.678	0.616	0.622	0.626	0.669	0.851	0.762	0.744	0.879	0.881
